{"source": "paper PMC9521027", "about": "(ACS Omega, 2022)", "key": {"URAT1 K393H mutant [1]": {"target": "T1, URAT1 K393H mutant (Homo sapiens, UniProt Q96S37, K393H)", "T1 sequence (Q96S37 1-553 K393H)": "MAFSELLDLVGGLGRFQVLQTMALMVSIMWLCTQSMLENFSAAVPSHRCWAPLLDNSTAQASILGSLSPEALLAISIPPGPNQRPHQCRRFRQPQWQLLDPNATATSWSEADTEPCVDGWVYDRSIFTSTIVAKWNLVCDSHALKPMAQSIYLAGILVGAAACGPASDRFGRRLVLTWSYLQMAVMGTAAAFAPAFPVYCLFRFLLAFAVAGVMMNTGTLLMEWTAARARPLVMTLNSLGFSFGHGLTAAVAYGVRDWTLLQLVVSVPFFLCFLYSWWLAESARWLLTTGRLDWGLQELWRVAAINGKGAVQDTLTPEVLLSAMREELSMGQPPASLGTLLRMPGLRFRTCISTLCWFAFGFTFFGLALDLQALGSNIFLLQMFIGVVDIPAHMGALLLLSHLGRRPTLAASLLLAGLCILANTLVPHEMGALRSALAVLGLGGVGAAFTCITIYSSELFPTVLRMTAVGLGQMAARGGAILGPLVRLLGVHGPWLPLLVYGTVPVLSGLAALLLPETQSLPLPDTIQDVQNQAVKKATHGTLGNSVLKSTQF", "assay": "Competitive inhibition test of unlabeled uric acid on 14C-uric acid uptake", "type": "cell-based"}, "URAT1 K393R mutant": {"target": "T2, URAT1 K393R mutant (Homo sapiens, UniProt Q96S37, K393R)", "T2 sequence (Q96S37 1-553 K393R)": "T1 sequence (Q96S37 1-553 K393H) with H393R", "assay": "14C-uric acid uptake assay in transfected HEK293 cells", "type": "cell-based", "settings": "K393R, HEK293 cells"}, "URAT1 K393H mutant [2]": {"target": "T1, URAT1 K393H mutant", "assay": "14C-uric acid uptake assay in transfected HEK293 cells", "type": "cell-based", "settings": "K393H, HEK293 cells"}, "URAT1 K393A mutant": {"target": "T3, URAT1 K393A mutant (Homo sapiens, UniProt Q96S37, K393A)", "T3 sequence (Q96S37 1-553 K393A)": "T1 sequence (Q96S37 1-553 K393H) with H393A", "assay": "14C-uric acid uptake assay in transfected HEK293 cells", "type": "cell-based", "settings": "K393A, HEK293 cells"}, "URAT1 WT [3]": {"target": "T4, URAT1 WT (Homo sapiens, UniProt Q96S37)", "T4 sequence (Q96S37 1-553)": "T1 sequence (Q96S37 1-553 K393H) with H393K", "assay": "Competitive inhibition test of unlabeled uric acid on 14C-uric acid uptake", "type": "cell-based"}, "URAT1 WT [4]": {"target": "T4, URAT1 WT", "assay": "Saturation kinetic experiment of 14C-uric acid uptake", "type": "cell-based", "settings": "wild-type group"}, "URAT1 K393H mutant [5]": {"target": "T1, URAT1 K393H mutant", "assay": "14C-uric acid binding assay with membrane protein", "settings": "2.5 μg membrane protein, 25 μM 14C-uric acid, 30 min"}}, "note": "Changes are numbered by the printed parent chain.", "data": [{"smiles": "O=c1[nH]c(=O)c2[nH]c(=O)[nH]c2[nH]1", "note": "[uric acid]", "values": [{"measurement": "IC50", "setting": "URAT1 K393H mutant [1]", "value": "121 ± 5.98", "unit": "µM"}, {"measurement": "14C-uric acid transport compared with WT", "setting": "URAT1 K393R mutant", "value": "no reduction"}, {"measurement": "14C-uric acid transport capacity compared with WT", "setting": "URAT1 K393H mutant [2]", "value": "slightly reduced"}, {"measurement": "14C-urate transport capacity lost compared with WT", "setting": "URAT1 K393A mutant", "value": "70–80%"}, {"measurement": "IC50", "setting": "URAT1 WT [3]", "value": "115 ± 6.36", "unit": "µM"}, {"measurement": "Vmax", "setting": "URAT1 WT [4]", "value": 654.12, "unit": "µM"}, {"measurement": "14C-uric acid binding capacity compared with WT", "setting": "URAT1 K393H mutant [5]", "value": "similar"}]}]}
